Like-named read-outs stand apart in the source and are kept apart here.
How the values were obtained:
[1] = biological target: T1, Carbonic anhydrase II (bovine) (Bos taurus, UniProt P00921); assay: SPR binding of CA to immobilised benzene sulfonamide ligands
T1 construct: purchased Sigma (St. Louis, Mo.)
Protocol: Curve 1: CA (5 μM) with a mixture of proteins (each at 0.2 mg/mL) including fibrinogen, RNase, lysozyme, and myoglobin; Curve 2: CA (5 μM); Curve 3: a mixture of proteins as in 1 without CA; Curve 4: CA (5 μM) with 1 mM soluble benzenesulfonamide ligand.

CA = CA (Bos taurus, UniProt P00921); details: soluble ligand; cited from earlier work
fibrinogen = biological target: T2, fibrinogen (Bos taurus, UniProt P02672+P02676+P12799); assay: SPR adsorption of fibrinogen to SAMs / grafted polymer films; assay type: binding, bovine; details: for % Fiboff (percent decrease in adsorbed protein during 10 minute PBS wash) / dR/dton fibrinogen (maximum initial rate of adsorption) / % MLfib 3 min / % MLfib 30 min: mixed SAM —CONRR′/—CO2H; for % MLfib 3 min: 1 mg/mL fibrinogen flowed 3 min, relative to —CONH(CH2)10CH3/—CO2H SAM; for % MLfib 30 min: 1 mg/mL fibrinogen flowed 30 min; for % ML 30 min / dR/dt on / % ML 3 min: fibrinogen; for % ML 30 min / dR/dt on / % Fib off: single-component SAMs (a) and mixed SAMs (b); for % ML 3 min: single-component SAMs (a, RSH) and mixed SAMs (b, RNH2)
T2 sequence (P02672 20-615): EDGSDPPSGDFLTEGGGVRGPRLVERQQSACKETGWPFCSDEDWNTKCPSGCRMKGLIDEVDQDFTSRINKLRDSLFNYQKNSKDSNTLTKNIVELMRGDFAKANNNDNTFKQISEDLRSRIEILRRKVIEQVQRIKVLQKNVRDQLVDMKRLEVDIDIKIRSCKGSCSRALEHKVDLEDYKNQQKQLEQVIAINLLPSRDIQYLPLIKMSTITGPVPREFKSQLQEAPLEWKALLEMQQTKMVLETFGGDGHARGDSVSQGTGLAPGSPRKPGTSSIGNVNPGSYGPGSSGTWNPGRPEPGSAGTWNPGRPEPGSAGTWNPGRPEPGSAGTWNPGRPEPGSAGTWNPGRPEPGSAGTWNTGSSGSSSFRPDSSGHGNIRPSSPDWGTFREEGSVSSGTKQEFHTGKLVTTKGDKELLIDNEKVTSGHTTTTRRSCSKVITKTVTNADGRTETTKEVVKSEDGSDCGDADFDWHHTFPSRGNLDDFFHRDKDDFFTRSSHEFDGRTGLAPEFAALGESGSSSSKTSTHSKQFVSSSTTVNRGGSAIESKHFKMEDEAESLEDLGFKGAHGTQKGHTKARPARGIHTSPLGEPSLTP
T2 sequence (P02676 1-468): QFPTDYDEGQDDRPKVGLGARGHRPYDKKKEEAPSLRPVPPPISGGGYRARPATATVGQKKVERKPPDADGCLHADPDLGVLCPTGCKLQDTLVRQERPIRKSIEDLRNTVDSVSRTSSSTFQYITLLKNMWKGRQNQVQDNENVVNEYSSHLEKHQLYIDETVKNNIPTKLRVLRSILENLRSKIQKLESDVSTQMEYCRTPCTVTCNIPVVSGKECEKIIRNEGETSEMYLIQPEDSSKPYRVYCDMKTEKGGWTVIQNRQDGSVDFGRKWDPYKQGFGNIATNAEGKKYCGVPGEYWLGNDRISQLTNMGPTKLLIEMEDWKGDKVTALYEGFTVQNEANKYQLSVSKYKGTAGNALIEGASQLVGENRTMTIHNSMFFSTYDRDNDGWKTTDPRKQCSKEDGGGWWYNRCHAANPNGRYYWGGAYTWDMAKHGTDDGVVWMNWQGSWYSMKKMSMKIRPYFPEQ
T2 sequence (P12799 25-444): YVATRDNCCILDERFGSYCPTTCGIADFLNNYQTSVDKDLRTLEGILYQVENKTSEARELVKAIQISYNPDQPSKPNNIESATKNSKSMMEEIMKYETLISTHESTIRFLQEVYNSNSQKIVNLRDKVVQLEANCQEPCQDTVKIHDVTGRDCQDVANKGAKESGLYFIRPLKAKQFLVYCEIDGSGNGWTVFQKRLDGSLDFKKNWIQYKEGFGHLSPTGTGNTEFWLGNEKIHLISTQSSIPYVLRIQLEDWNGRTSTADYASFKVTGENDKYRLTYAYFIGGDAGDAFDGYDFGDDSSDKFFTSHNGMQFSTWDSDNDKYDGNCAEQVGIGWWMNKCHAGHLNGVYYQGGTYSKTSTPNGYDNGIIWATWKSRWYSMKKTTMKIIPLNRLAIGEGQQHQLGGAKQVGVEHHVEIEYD

lysozyme = lysozyme (Gallus gallus, UniProt P00698); assay: SPR adsorption of lysozyme to SAMs / grafted polymer films; assay type: binding; details: for % Lysoff (percent decrease in adsorbed protein during 10 minute PBS wash) / dR/dton lysozyme (maximum initial rate of adsorption) / % MLlys 3 min / % MLlys 30 min: mixed SAM —CONRR′/—CO2H; for % MLlys 3 min: 1 mg/mL lysozyme flowed 3 min; for % MLlys 30 min: 1 mg/mL lysozyme flowed 30 min; for % ML 3 min / dR/dt on: lysozyme
[2] = Contact angle of deionized water under cyclooctane; assay type: physicochemical
[3] = tested on: mixture of fibrinogen, myoglobin, lysozyme, and RNase; assay: SPR nonspecific adsorption from a mixture of proteins; assay type: binding; details: mixed SAM presenting 13 and —CONH(CH2CH2O)6H/—CO2H groups
[4] = footnote b (30 minutes), single-component SAMs (a) and mixed SAMs (b)
[5] = single-component SAMs (a) and mixed SAMs (b)

Chain of lysozyme (P00698 19-147): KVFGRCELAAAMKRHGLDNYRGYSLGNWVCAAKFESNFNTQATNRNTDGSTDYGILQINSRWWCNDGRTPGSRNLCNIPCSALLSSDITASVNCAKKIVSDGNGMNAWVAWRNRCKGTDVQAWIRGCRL
T1 sequence (P00921 whole entry): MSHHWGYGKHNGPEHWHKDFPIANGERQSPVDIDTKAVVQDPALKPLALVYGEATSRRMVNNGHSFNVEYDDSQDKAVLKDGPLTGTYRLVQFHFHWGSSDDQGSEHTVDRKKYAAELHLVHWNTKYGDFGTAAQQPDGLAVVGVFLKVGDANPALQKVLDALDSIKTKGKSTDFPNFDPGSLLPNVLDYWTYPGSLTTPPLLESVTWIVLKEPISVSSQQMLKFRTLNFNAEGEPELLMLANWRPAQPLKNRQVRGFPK
Chain of CA (P00921 whole entry): as above

COC(=O)CNC(=O)c1ccc(S(N)(=O)=O)cc1 [benzene sulfonamide 14, H2NSO2C6H4—CONHCH2CO2CH3, reference compound]
competitive inhibition of binding of CA to the mixed SAM presenting 13 ([1]; 1 mM added to the CA-containing solution): completely inhibited
Kd (CA): 63 µM

H(CH3)NCH2CH(OCH3)2
% Fiboff (percent decrease in adsorbed protein during 10 minute PBS wash) (fibrinogen): 15 ± 4%
dR/dton fibrinogen (maximum initial rate of adsorption) (fibrinogen): 510 ± 400 RU/sec
% MLfib 3 min (fibrinogen): 16 ± 2%
% MLfib 30 min (fibrinogen): 36 ± 1%
% Lysoff (percent decrease in adsorbed protein during 10 minute PBS wash) (lysozyme): 190 ± 2%
dR/dton lysozyme (maximum initial rate of adsorption) (lysozyme): 740 ± 300 RU/sec
% MLlys 3 min (lysozyme): 4.6 ± 2%
% MLlys 30 min (lysozyme): 19 ± 5%
θco sessile ([2]; mixed SAM): 70 degrees

CNCCN(C)C(=O)N(C)C
% Fiboff (percent decrease in adsorbed protein during 10 minute PBS wash) (fibrinogen): 15 ± 2%
dR/dton fibrinogen (maximum initial rate of adsorption) (fibrinogen): 60 ± 30 RU/sec
% MLfib 3 min (fibrinogen): 5.9 ± 0.2%
% MLfib 30 min (fibrinogen): 25 ± 1%
% Lysoff (percent decrease in adsorbed protein during 10 minute PBS wash) (lysozyme): 160 ± 10%
dR/dton lysozyme (maximum initial rate of adsorption) (lysozyme): 670 ± 50 RU/sec
% MLlys 3 min (lysozyme): 2.1 ± 0.2%
% MLlys 30 min (lysozyme): 11 ± 0.5%
θco sessile ([2]; mixed SAM): 62 degrees

NCCOCCOCCOCCOCCOCCOCC(=O)NCCCCCCNC(=O)c1ccc(S(N)(=O)=O)cc1 [compound 13, [6-(2-{2-[2-(2-{2-[2-(2-Amino-ethoxy)-ethoxy]-ethoxy}-ethoxy)-ethoxy]-ethoxy}-ethanoylamino)-hexyl]-4-sulfamoyl-benzamide]
reversibility of binding of CA ([1]; CA 5 μM in PBS, mixed SAM presenting 13): > 90%
kon ([1]; SPR, CA 5 μM in PBS, surfaces of this work (entry 4, LPEI entries 6-9)): 13000 M^-1S^-1
koff ([1]; SPR, surfaces of this work (entry 4, LPEI entries 6-9)): 0.0054 S^-1
nonspecific adsorption of protein [3]: did not adsorb a detectable amount of protein

NCCOCCOCCO [Entry 3b, H(OCH2CH2)3NH2, reference compound]
% ML 30 min (fibrinogen): 2%
dR/dt on (fibrinogen): 30 RU/sec
% ML 3 min (fibrinogen): 1%
% Fib off (fibrinogen): 11%
% ML 3 min (lysozyme; [4]): 1%
% ML 3 min (lysozyme; [5]): 1%
dR/dt on (lysozyme; [5]): 85 RU/sec
θco sessile [2]: 50 degrees

C[N+](C)(C)CCN.[Cl-]
% Fiboff (percent decrease in adsorbed protein during 10 minute PBS wash) (fibrinogen): 6.2 ± 1%
dR/dton fibrinogen (maximum initial rate of adsorption) (fibrinogen): 300 ± 200 RU/sec
% MLfib 3 min (fibrinogen): 17 ± 2%
% MLfib 30 min (fibrinogen): 25 ± 4%
% Lysoff (percent decrease in adsorbed protein during 10 minute PBS wash) (lysozyme): 95 ± 7%
dR/dton lysozyme (maximum initial rate of adsorption) (lysozyme): 140 ± 40 RU/sec
% MLlys 3 min (lysozyme): 3.5 ± 0.2%
% MLlys 30 min (lysozyme): 3.9 ± 0.7%
θco sessile ([2]; mixed SAM): 31 degrees

CC(=O)N1CCNCC1
% ML 30 min (fibrinogen): 38 ±0.2%
dR/dt on (fibrinogen): 120 ±70 RU/sec
% ML 3 min (fibrinogen): 17 ±1%
% Fiboff (percent decrease in adsorbed protein during 10 minute PBS wash) (fibrinogen): 12 ± 2%
dR/dton fibrinogen (maximum initial rate of adsorption) (fibrinogen): 120 ± 70 RU/sec
% MLfib 3 min (fibrinogen): 17 ± 1%
% MLfib 30 min (fibrinogen): 38 ± 0.2%
% Fib off (fibrinogen): 12 ±2%
% ML 3 min (lysozyme; [4]): 7 ±0.2%
% ML 3 min (lysozyme; [5]): 8 ±1%
dR/dt on (lysozyme; [5]): 440 ±80 RU/sec
% Lysoff (percent decrease in adsorbed protein during 10 minute PBS wash) (lysozyme): 400 ± 5%
dR/dton lysozyme (maximum initial rate of adsorption) (lysozyme): 440 ± 80 RU/sec
% MLlys 3 min (lysozyme): 7.8 ± 1%
% MLlys 30 min (lysozyme): 6.5 ± 0.2%
% Lys off (lysozyme; [5]): 400 ±5%
θco sessile [2]: 45 degrees
θco sessile ([2]; mixed SAM): 45 degrees
